Test results: patent US20080096251A1, “Invertebrate-Derived Gonadotropic Hormone and its Synthesis” (priority 2004, published 2008)

Tests used:
[1] = test system: ovary of Asterias amurensis; assay: gonad-stimulating activity: spawning of matured eggs from ovary fragments in a two-fold dilution series; format: cell-based; conditions: Asterias amurensis ovary piece in seawater, 25° C., spawning after 1 hr
Protocol: (§1) Gonad-stimulating activity could be measured by the following methods:
(§2) Those individuals, whose eggs are highly sensitive to oocyte maturation-inducing hormone, are selected from matured invertebrate female individuals and are separated as test individuals.
(§3) Ovaries are excised from test individuals into seawater and are cut in small pieces. The assay plate for multiple test samples is filled with 200 μl seawater. Two μl of a test sample for gonad-stimulating activity is diluted to 200 folds by mixing with 398 μl seawater. The half portion (200 μl) is diluted to two fold by mixing with 200 μl seawater in the assay plate. The half portion (200 μl) is further diluted to two fold by mixing with 200 μl seawater in the assay plate. Repeating of the procedure results in preparation of two fold dilution series from 200-folds dilution to 102,400-folds dilution. A small piece of ovary is added to each dilution sample and is allowed to rest at 25° C. The gonad-stimulating activity is evaluated by spawning of matured eggs from a contracted small piece of ovary after 1 hr. The relative gonad-stimulating activity is assessed by the degree of dilution.
(§4) In the following Examples, gonad-stimulating activity are examined by the following way:
(§5) Two to three individuals bearing oocyte with high sensitivity of a gonadotropic hormone (1-methyladenine) are selected from several tens of female individuals of matured Asterina pectinifera (or Asterias amurensis) and are separated as test individuals.
(§6) The selection was performed in the following way:
(§7) The oocyte maturation-inducing hormone was diluted to 6 different concentrations, i.e. 10^−6 M, 3×10^−7 M, 10^−7 M, 3×10^−8 M, 10^−8 M, and 3×10^−9 M, in seawater, wherein small fragment of ovary was added to the different concentrations of maturation-inducing hormone and was allowed to stand for 60 min at room temperature. Maturation of oocyte was examined under microscope after 60 min to see whether the structure of nuclei in an oocyte was degraded to prepare for next fertilization. The concentration of the oocyte maturation-inducing hormone at maturation was checked and those individuals, which were matured at less than 10^−7 M, were used as test individuals.
as §3, with “(with tufted morphology) were removed” for “are excised”, “were” for “are”, “into about 5 mm fragments.” for “in small pieces.”, “hr (FIG. 1).” for “hr.”

[2] = test system: ovary of Asterina pectinifera; assay: as above; format: cell-based; conditions: for EC50(nM) gonad-stimulating activity, Asterina pectinifera: Asterina pectinifera ovary piece in seawater, 25° C., spawning after 1 hr; for gonad-stimulating activity (in words): summary of Table 1, Asterina pectinifera
Protocol: as §1, §2, §3, §4, §5, §6, §7
as §3, with “(with tufted morphology) were removed” for “are excised”, “were” for “are”, “into about 5 mm fragments.” for “in small pieces.”, “hr (FIG. 1).” for “hr.”

Sequence | EC50(nM) gonad-stimulating activity, Asterias amurensis [1] | EC50(nM) gonad-stimulating activity, Asterina pectinifera [2] | gonad-stimulating activity (in words) [2]
SEYSGIASYCCLHGCTPSELSVVC [GSS-B] | No activity | No activity | did not show gonad-stimulating activity
EKYCDDDFHMAVFRTCAVS [GSS-A, synthesized subunit peptide, 19 amino acid residues, molecular weight 2236] | No activity | No activity | did not show gonad-stimulating activity
